Results reported in PubChem BioAssay (NCI).
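Values below derive from 48-hour exposures of cells grown in 96-well plates, with endpoints linearly interpolated between the two concentrations bracketing the appropriate inhibition level. GI50 = concentration required for 50% inhibition of growth. The concentration for full growth arrest is given as TGI.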

How the values were obtained:
Assay in all cases: NCI anticancer screen, dose series, 48 h
M14 melanoma = system: M14 melanoma
T-47D breast = system: T-47D breast
DU-145 prostate = system: DU-145 prostate
OVCAR-5 ovarian = system: OVCAR-5 ovarian
UACC-257 melanoma = system: UACC-257 melanoma
MCF7 breast = system: MCF7 breast
RPMI-8226 leukemia = system: RPMI-8226 leukemia
EKVX NSCLC = system: EKVX NSCLC
PC-3 prostate = system: PC-3 prostate
NCI-H522 lung = system: NCI-H522 lung

Row | Structure (SMILES) | GI50 (M14 melanoma) [µM] | TGI (M14 melanoma) [µM] | GI50 (T-47D breast) [µM] | TGI (T-47D breast) [µM] | GI50 (DU-145 prostate) [µM] | TGI (DU-145 prostate) [µM] | GI50 (OVCAR-5 ovarian) [µM] | TGI (OVCAR-5 ovarian) [µM] | GI50 (UACC-257 melanoma) [µM] | TGI (UACC-257 melanoma) [µM] | GI50 (MCF7 breast) [µM] | TGI (MCF7 breast) [µM] | GI50 (RPMI-8226 leukemia) [µM] | TGI (RPMI-8226 leukemia) [µM] | GI50 (EKVX NSCLC) [µM] | TGI (EKVX NSCLC) [µM] | GI50 (PC-3 prostate) [µM] | TGI (PC-3 prostate) [µM] | GI50 (NCI-H522 lung) [µM] | TGI (NCI-H522 lung) [µM]
1 | O=C(c1ccccc1)c1c(NCC(O)CN2CCOCC2)n(Cc2ccccc2)c(=O)n(Cc2ccccc2)c1=O (centres undefined) | 38.9 | > 100 | 1.69 | > 43.3 | 35.2 | > 77.5 | 5.53 | > 78.7 | 55.8 | > 100 | 48.2 | > 100 | 24 | > 92.4 | > 48.6 | > 90.8 | 39.4 | > 100 | 38.9 | > 100
2 | Cc1cc(O)c(C2=NN(c3ccc(S(N)(=O)=O)cc3)C(c3ccc(Cl)cc3)C2)c(C)c1Cl (centres undefined) | 2.62 | 10.4 | 2.93 | 14.9 | 5.6 | 17.6 | 12.3 | 24.7 | 11.9 | 26.8 | 2.01 | 10.5 | 3.99 | 17.8 | 1.88 | 13.6 | 4.44 | 16.8 | 6.24 | 21.6
3 | c1cncc(CNCc2cccnc2)c1 | – | > 100 | – | > 100 | – | > 100 | – | > 100 | – | > 100 | – | > 100 | – | > 100 | – | > 100 | – | > 100 | – | > 100
4 | O=C(Oc1ccc(CO[N+](=O)[O-])cc1)c1ccccc1 | 0.115 | 0.271 | 0.137 | 0.323 | 0.289 | 0.818 | 0.172 | 0.316 | 0.207 | 0.532 | 0.194 | 0.722 | 0.0912 | 0.33 | 0.407 | 1.59 | 0.13 | 0.301 | 0.158 | 0.318
5 | CSCCCNC(=O)c1ccc2c(c1)/C(=C/c1[nH]c(C)cc1C)C(=O)N2 | 0.284 | > 100 | 0.465 | > 100 | 0.7 | > 100 | 3.85 | > 100 | 4.67 | > 100 | 4.05 | > 100 | 1.68 | > 100 | – | – | 0.647 | > 100 | 0.843 | > 100
6 | Cc1nc(Nc2ccccn2)sc1C(=O)/C=C/c1ccc(Cl)cc1 | 0.342 | > 67.1 | 8.68 | > 100 | 0.383 | > 71.5 | 0.587 | > 79.4 | 22.8 | > 100 | 0.344 | > 100 | 0.523 | > 100 | 0.846 | > 100 | 0.368 | > 100 | 0.241 | –
7 | C=C1CCC2(C#N)[C@H]3[C@H](CC[C@@H]2C)[C@@H](C)C[C@@H](CC(C)(C)NC(=O)CN2CCC2=O)[C@H]13 (some centres undefined) | 4.56 | 17.8 | 2.49 | 9.64 | 12.1 | 41.1 | 10.7 | 22.5 | 5.4 | 26.7 | 4.58 | 23.4 | 2.87 | 15.9 | 6.42 | > 100 | 4.7 | 36.6 | 13.5 | 45.6
8 | C1=C2CCCC3=Cc4ccccc4OC23Oc2ccccc21 | 3.37 | > 100 | 2.46 | > 100 | 3.73 | 69.1 | 3.46 | > 100 | 5.49 | > 100 | 3.03 | 60.6 | 3.38 | 15 | 5.49 | > 100 | 4 | > 100 | 2.3 | 6.2
9 | O=P1(S)OC[C@H]2O[C@@H]3[C@H](F)[C@@H]2OP(O)(=S)OC[C@H]2O[C@H]([C@H](F)[C@@H]2O1)n1cnc2c(ncnc21)NC/C=C/CNc1ncnc2c1ncn23 (some centres undefined) | > 100 | > 100 | > 100 | > 100 | > 100 | > 100 | > 44.1 | > 100 | 0.316 | > 100 | > 100 | > 100 | > 100 | > 100 | > 100 | > 100 | > 100 | > 100 | > 100 | > 100
10 | Cc1ccc(S(=O)(=O)c2nc(-c3ccccc3)oc2S(C)=O)cc1 (centres undefined) | 1.59 | 3.25 | 1.23 | 3.17 | 1.25 | 2.63 | 1.85 | 3.47 | 1.58 | 3.11 | 1.21 | 3.62 | 1.4 | 4.13 | 1.72 | 3.4 | 2.03 | 4.45 | 1.12 | 2.59
11 | CC1=Nc2ccccc2/C1=C\c1c(C)[nH]c2ccccc12 | – | > 100 | – | 29.4 | – | 31.2 | – | 50.9 | – | 30.3 | – | 18.3 | – | 88.1 | – | 29.7 | – | 39.2 | – | 23.6
12 | CCOc1c(N=Nc2ccccc2Cl)c(-c2ccccc2)nn1C(=S)S | – | > 100 | – | > 100 | – | > 100 | – | > 100 | – | > 100 | – | > 100 | – | – | – | > 100 | – | > 100 | – | 89.9
13 | O=c1[nH]c2nc(NC3CCOCC3)ncc2cc1Oc1ccc(F)cc1F | > 25 | > 25 | > 25 | > 25 | > 25 | > 25 | > 25 | > 25 | > 25 | > 25 | > 25 | > 25 | > 25 | > 25 | – | – | > 25 | > 25 | > 25 | > 25
14 | Cn1cc(-c2ccc3nnc(Sc4ccc5ncccc5c4)n3n2)cn1 | > 100 | > 100 | 99.3 | > 100 | 73.3 | > 100 | 61.9 | > 100 | > 100 | > 100 | 97.5 | > 100 | 41.2 | > 100 | 97 | > 100 | > 92.7 | > 100 | > 100 | > 100
15 | CCCCCC[C@H](C)Nc1nc2ccccc2c2occc12 | 7.88 | 20.8 | 33.2 | 61.8 | 3.34 | 14 | 5.54 | 20.3 | 3.24 | 16.3 | > 100 | > 100 | 3.74 | 44.3 | 2.26 | 7.04 | 14.8 | 35.5 | 2.26 | 13.9
16 | Cc1nc2c(n1C)C(=O)c1ccccc1C2=O | 43 | > 100 | 87.4 | > 100 | 51.3 | > 100 | > 100 | > 100 | 29.4 | > 100 | 46.1 | > 100 | > 100 | > 100 | 60.4 | > 100 | 63.9 | > 100 | 40.6 | > 100
17 | O=C1/C(=C/c2ccccc2)CN(C(=O)CCN2CCCC2)C/C1=C\c1ccccc1 | – | 3.62 | – | 5.61 | – | 18.1 | – | 7.7 | – | 6.65 | – | 2.63 | – | 2.46 | – | 7.15 | – | 2.42 | – | 2.8
18 | O=C(NCCc1ccccn1)OCc1nc2nc(Cl)nc(N3CCOCC3)c2[nH]1 | – | – | 2.13 | 6.48 | 1.57 | 3.04 | 1.67 | 3.38 | 1.87 | 5.26 | 1.59 | 5.17 | 1.62 | 5.63 | 2.93 | 11.3 | 1.7 | 3.73 | 1.93 | 4.96
19 | O=c1/c(=C\c2ccc(F)cc2)sc2n1C(c1ccc(F)cc1)C1=C(N=2)c2ccc3ccccc3c2OCC1 (centres undefined) | > 100 | > 100 | > 100 | > 100 | > 100 | > 100 | > 100 | > 100 | > 100 | > 100 | > 100 | > 100 | > 100 | > 100 | > 100 | > 100 | > 52.8 | > 100 | > 100 | > 100
20 | COc1cc(NC(=O)CCSc2nc3ccc(C)cc3c(=O)n2Cc2ccccc2)cc(OC)c1OC | 24.4 | > 100 | 7.04 | > 100 | 66 | > 100 | > 100 | > 100 | 4.96 | > 100 | 32 | > 100 | > 100 | > 100 | – | – | 5.39 | > 100 | 11.3 | 76.7
21 | COc1cc2c(cc1OCCCCCCN1CCN(CC(=O)Nc3ccc(Cl)cc3C(=O)c3ccccc3Cl)CC1)N=CC1CCCN1C2=O (centres undefined) | – | – | 0.164 | 0.415 | 0.254 | 0.715 | 0.567 | 1.34 | 0.2 | 0.775 | 0.153 | 0.321 | – | – | 0.477 | 1.14 | 0.308 | 0.715 | 0.143 | 0.322
22 | C#Cc1nc2ccccc2c(=O)[nH]1 | 1.07 | 3.06 | 1.36 | 3.6 | 1.63 | 8.25 | 1.04 | 2.59 | 0.505 | 3.15 | 0.282 | 2.75 | 0.213 | 0.635 | – | – | 0.674 | 2.54 | 0.765 | 2.18
23 | COc1ccc(-c2nc(-c3nc4ccc(F)cc4[nH]3)c3ccccn23)cc1 | 12.9 | > 100 | 3.55 | 20.8 | 10.7 | 40.2 | 45.2 | > 100 | 9.15 | 57.2 | 6.15 | > 100 | 2.86 | > 100 | – | – | 6.14 | 46.9 | 4.49 | 25
24 | CN(C)CCSS(=O)(=O)O | – | > 100 | – | > 100 | – | > 100 | – | > 100 | – | – | – | > 100 | – | > 100 | – | > 100 | – | > 100 | – | > 100
25 | c1ccc2c(c1)SCCCSCCSCCCS2 | – | > 100 | – | > 100 | – | > 100 | – | > 100 | – | > 100 | – | > 100 | – | – | – | > 100 | – | > 100 | – | > 100
26 | Cn1cc(C2=C(c3cn(C)c4ccc(Cl)cc34)C(=O)NC2=O)c2ccccc21 | 2.63 | > 24 | 3.84 | 13 | 8.45 | > 25 | 9.3 | > 21.9 | 5.09 | 16.8 | 1.25 | > 25 | 5.68 | 17.2 | – | – | 3.88 | > 23.2 | 1.34 | 10.5
27 | c1ccc(-c2nc(N3CCOCC3)c3c4c(sc3n2)CCCCCC4)nc1 | 4.17 | 16.5 | 4.46 | 22.7 | 6.93 | 19.6 | 10.3 | 26.5 | 10.9 | 23.2 | 3.04 | 12.8 | 2.12 | 9.67 | – | – | 2.69 | 11.8 | 5.85 | 20.2
28 | COc1ccc(C(=O)NNc2nc(Cl)nc(N3CCN(C(c4ccccc4)c4ccccc4)CC3)n2)cc1 | 1.75 | 3.58 | 64 | > 100 | 3.93 | 13.6 | 13.2 | 33.2 | 2.84 | 9.06 | > 100 | > 100 | 33.7 | > 100 | 3.43 | 14.8 | 1.74 | 3.59 | – | –
